Values of other authors in patent US20130115264A1, “IMPLANTABLE RASAGILINE COMPOSITIONS AND METHODS OF TREATMENT THEREOF” (Endo Pharmaceuticals Solutions Inc., priority 2011, published 2013).
Where a name gives a salt, the structure may show the parent alone.

Legend:
[1] = oral dosage form
[2] = in vivo
MAO-B = settings: ex vivo, brain, liver and intestinal tissues

Q: With C#CCN[C@@H]1CCc2ccccc21 [rasagiline mesylate] as the molecule, how does the oral bioavailability [1] read?
A: ~35%

Q: Which results are given for C#CCN[C@@H]1CCc2ccccc21 [rasagiline, R-(+)-N-propargyl-1-aminoindan]?
A: half-life [2]: about 3 hours; MAO-B inhibition (MAO-B): potent, irreversible MAO-B selective inhibitor
